Data: article PMC11108815 (Heliyon, 2024)
Marks after values point to notes of the source that are not given here.

Columns and labels:
[1] = Pharmacokinetics in rat plasma; assay type: in vivo, Wistar rats; settings: for AUC(0-inf): AUC0-∞; for CL/F: CLz/F; for MRT last: MRT0-t; for MRT inf: MRT0-∞
[2] = rats, oral, 12.5 to 50 mg kg^−1; cited from earlier work
[3] = Stability test of QC samples; assay type: physicochemical, rat
[4] = Wistar, rat, plasma, po, 100 mg/kg, AUC0-t, FS-C: normal (blank) rats, oral FS 100 mg kg^−1, n = 6
[5] = Wistar, rat, plasma, po, 100 mg/kg, AUC0-t, FT-C: normal (blank) rats, oral FT 100 mg kg^−1, n = 6
[6] = Wistar, rat, plasma, po, 100 mg/kg, FS-C: normal (blank) rats, oral FS 100 mg kg^−1, n = 6
[7] = Wistar, rat, plasma, po, 100 mg/kg, FT-C: normal (blank) rats, oral FT 100 mg kg^−1, n = 6
[8] = Wistar, rat, plasma, po, 100 mg/kg, Cmax, FS-C: normal (blank) rats, oral FS 100 mg kg^−1, n = 6
[9] = Wistar, rat, plasma, po, 100 mg/kg, Cmax, FT-C: normal (blank) rats, oral FT 100 mg kg^−1, n = 6
[10] = Wistar, rat, plasma, po, 100 mg/kg, T1/2, FS-C: normal (blank) rats, oral FS 100 mg kg^−1, n = 6
[11] = Wistar, rat, plasma, po, 100 mg/kg, T1/2, FT-C: normal (blank) rats, oral FT 100 mg kg^−1, n = 6
[12] = Wistar, rat, plasma, po, 100 mg/kg, Tmax, FS-C: normal (blank) rats, oral FS 100 mg kg^−1, n = 6
[13] = Wistar, rat, plasma, po, 100 mg/kg, Tmax, FT-C: normal (blank) rats, oral FT 100 mg kg^−1, n = 6
[14] = Wistar, rat, plasma, po, 100 mg/kg, Tmax, control group, after oral administration of FS or FT
[15] = Store at 4 °C for 24 h, high concentration QC sample in rat plasma
[16] = Store at 4 °C for 24 h, low concentration QC sample in rat plasma
[17] = Store at 4 °C for 24 h, medium concentration QC sample in rat plasma
[18] = Store at room temperature for 12 h, high concentration QC sample in rat plasma
[19] = Store at room temperature for 12 h, low concentration QC sample in rat plasma
[20] = Store at room temperature for 12 h, medium concentration QC sample in rat plasma
[21] = Store at −20 °C for 20 days, high concentration QC sample in rat plasma
[22] = Store at −20 °C for 20 days, low concentration QC sample in rat plasma
[23] = Store at −20 °C for 20 days, medium concentration QC sample in rat plasma
[24] = Three freeze-thaw cycles, high concentration QC sample in rat plasma
[25] = Three freeze-thaw cycles, low concentration QC sample in rat plasma
[26] = Three freeze-thaw cycles, medium concentration QC sample in rat plasma
[27] = FS-C: normal (blank) rats, oral FS 100 mg kg^−1, n = 6
[28] = FS-M: microcirculation dysfunction model rats, oral FS 100 mg kg^−1, n = 6
[29] = FT-C: normal (blank) rats, oral FT 100 mg kg^−1, n = 6
[30] = FT-M: microcirculation dysfunction model rats, oral FT 100 mg kg^−1, n = 6

Which AUC(0-t) [1, 4] does the source give for `O=C(/C=C/c1ccc(O)c(O)c1)O[C@H](Cc1ccc(O)c(O)c1)C(=O)O` [Rosmarinic acid] here?
Its AUC(0-t) is 218 ± 14.9 ng·h/mL.

And the AUC(0-t) [1, 5]?
The AUC(0-t) was 104 ± 17.2 ng·h/mL.

What about the AUC(0-inf) [1, 6] of the same compound?
Its AUC(0-inf) is 222 ± 20.6 ng·h/mL.

And the AUC(0-inf) [1, 7]?
The AUC(0-inf) was 109 ± 28.6 ng·h/mL.

And the CL/F [1, 6]?
The CL/F was 2060 mL/min/kg.

What about the CL/F [1, 7] of the same compound?
The CL/F was 3430 mL/min/kg.

What about the Cmax [1, 8] of the same compound?
Its Cmax is 54.5 ± 5.34 ng/mL.

And the Cmax [1, 9]?
Its Cmax is 16.4 ± 4.28 ng/mL.

And the MRT last [1, 6]?
The MRT last was 5.01 ± 0.38 h.

What about the MRT last [1, 7] of the same compound?
Its MRT last is 7.95 ± 1.33 h.

What about the MRT inf [1, 6] of the same compound?
Its MRT inf is 5.48 ± 1.41 h.

And the MRT inf [1, 7]?
Its MRT inf is 8.82 ± 3.43 h.

What about the half-life [1, 10] of the same compound?
Its half-life is 2.42 ± 2.5 h.

And the half-life [1, 11]?
The half-life was 2.91 ± 3.72 h.

And the Tmax [1, 12]?
Its Tmax is 0.39 ± 0.09 h.

What about the Tmax [1, 13] of the same compound?
The Tmax was 0.22 ± 0.09 h.

And the Tmax [1, 14]?
The Tmax was under 0.39 h.

And the “MRT0-t after oral FT compared with the FS group” value ([1]; both before and after modeling)?
Its value is “increased”.

And the “CLz/F in FT compared with FS” value ([1]; normal group, p < 0.01)?
The value was “higher”.

And the “AUC0-t in FT compared with FS” value ([1]; normal group, p < 0.01, 0.05)?
The value was “significantly lower”.

What about the “AUC0-∞ in FT compared with FS” value ([1]; normal group, p < 0.01, 0.05) of the same compound?
Its value is “significantly lower”.

And the “Cmax in FT compared with FS” value ([1]; normal group, p < 0.01, 0.05)?
Its value is “significantly lower”.

What about the “Cmax after modeling compared with control group” value ([1]; oral administration of FS) of the same compound?
Its value is “increased”.

What about the pharmacokinetic characteristics [2] of the same compound?
Its pharmacokinetic characteristics is “fast absorption, moderate elimination and low absolute bioavailability”.

What about the “Stability, Accuracy (RE, %)” value [3, 15] of the same compound?
The value was 5.57%.

And the “Stability, Accuracy (RE, %)” value [3, 16]?
Its value is −6.18%.

And the “Stability, Accuracy (RE, %)” value [3, 17]?
Its value is 0.63%.

And the “Stability, Accuracy (RE, %)” value [3, 18]?
The value was −10.92%.

What about the “Stability, Accuracy (RE, %)” value [3, 19] of the same compound?
The value was −3.95%.

And the “Stability, Accuracy (RE, %)” value [3, 20]?
The value was −0.80%.

What about the “Stability, Accuracy (RE, %)” value [3, 21] of the same compound?
The value was 0.99%.

And the “Stability, Accuracy (RE, %)” value [3, 22]?
The value was 1.19%.

What about the “Stability, Accuracy (RE, %)” value [3, 23] of the same compound?
The value was 6.02%.

And the “Stability, Accuracy (RE, %)” value [3, 24]?
Its value is −4.84%.

What about the “Stability, Accuracy (RE, %)” value [3, 25] of the same compound?
Its value is 1.82%.

And the “Stability, Accuracy (RE, %)” value [3, 26]?
Its value is −0.56%.

Which results are given for `O=C(/C=C/c1ccc(O)c(O)c1/C=C/c1ccc(O)c(O)c1)O[C@H](Cc1ccc(O)c(O)c1)C(=O)O` [Salvianolic acid A]?
AUC(0-t) [1, 4]: 107 ± 46.1 ng·h/mL; AUC(0-t) [1, 5]: 122 ± 30.9 ng·h/mL; AUC(0-inf) [1, 6]: 168 ± 139 ng·h/mL; AUC(0-inf) [1, 7]: 162 ± 87.3 ng·h/mL; CL/F [1, 6]: 74.8 mL/min/kg; CL/F [1, 7]: 37 mL/min/kg; Cmax [1, 8]: 13.2 ± 8.35 ng/mL; Cmax [1, 9]: 8.58 ± 1.35 ng/mL; MRT last [1, 6]: 7.12 ± 2.26 h; MRT last [1, 7]: 8.8 ± 1.62 h; MRT inf [1, 6]: 17 ± 17.6 h; MRT inf [1, 7]: 15 ± 11.6 h; half-life [1, 10]: 9.92 ± 13.7 h; half-life [1, 11]: 7.38 ± 9.48 h; Tmax [1, 12]: 0.63 ± 0.42 h; Tmax [1, 13]: 0.56 ± 0.36 h; Tmax [1, 14]: > 0.47 h; shape of the drug-time curve ([1]; both the control and model groups treated with oral FS or FT): bimodal phenomenon; Stability, Accuracy (RE, %) [3, 15]: −0.93%; Stability, Accuracy (RE, %) [3, 16]: 1.81%; Stability, Accuracy (RE, %) [3, 17]: 11.49%; Stability, Accuracy (RE, %) [3, 18]: 3.31%; Stability, Accuracy (RE, %) [3, 19]: −1.96%; Stability, Accuracy (RE, %) [3, 20]: −3.89%; Stability, Accuracy (RE, %) [3, 21]: 2.45%; Stability, Accuracy (RE, %) [3, 22]: 7.09%; Stability, Accuracy (RE, %) [3, 23]: −9.12%; Stability, Accuracy (RE, %) [3, 24]: −10.32%; Stability, Accuracy (RE, %) [3, 25]: 1.08%; Stability, Accuracy (RE, %) [3, 26]: 11.33%

With `O=C(/C=C/c1ccc(O)c2oc(-c3ccc(O)c(O)c3)cc12)O[C@H](Cc1ccc(O)c(O)c1)C(=O)O` [Salvianolic acid C] as the compound, how does the “AUC0-∞” value [1, 27] read?
Its value is 33.09 ± 32.59 ng·h/mL.

What about the AUC(0-t) [1, 27] of the same compound?
The AUC(0-t) was 30.14 ± 25.77 ng·h/mL.

And the CLz/F [1, 27]?
The CLz/F was 1061 ± 557.5 mL/min/kg.

And the Cmax [1, 27]?
Its Cmax is 11.01 ± 2.17 ng/mL.

And the MRT0-t [1, 27]?
Its MRT0-t is 3.65 ± 4.31 h.

What about the “MRT0-∞” value [1, 27] of the same compound?
Its value is 4.61 ± 6.46 h.

What about the T1/2 [1, 27] of the same compound?
The T1/2 was 7.30 ± 4.55 h.

What about the Tmax [1, 27] of the same compound?
The Tmax was 0.67 ± 0.26 h.

And the “AUC0-∞” value [1, 28]?
The value was 55.32 ± 49.60 ng·h/mL.

And the AUC(0-t) [1, 28]?
Its AUC(0-t) is 39.25 ± 24.96 ng·h/mL.

What about the CLz/F [1, 28] of the same compound?
Its CLz/F is 689.2 ± 416.2 mL/min/kg.

And the Cmax [1, 28]?
Its Cmax is 11.09 ± 3.14 ng/mL.

And the MRT0-t [1, 28]?
The MRT0-t was 4.52 ± 4.05 h.

What about the “MRT0-∞” value [1, 28] of the same compound?
The value was 10.25 ± 12.88 h.

What about the T1/2 [1, 28] of the same compound?
Its T1/2 is 8.45 ± 8.99 h.

And the Tmax [1, 28]?
The Tmax was 0.75 ± 0.27 h.

And the “AUC0-∞” value [1, 29]?
The value was 30.07 ± 23.22 ng·h/mL.

What about the AUC(0-t) [1, 29] of the same compound?
The AUC(0-t) was 29.34 ± 21.99 ng·h/mL.

And the CLz/F [1, 29]?
The CLz/F was 1134 ± 771.3 mL/min/kg.

What about the Cmax [1, 29] of the same compound?
The Cmax was 7.05 ± 1.64 ^b μg·L^−1.

And the MRT0-t [1, 29]?
The MRT0-t was 4.27 ± 3.46 h.

And the “MRT0-∞” value [1, 29]?
The value was 4.55 ± 3.95 h.

And the T1/2 [1, 29]?
The T1/2 was 3.31 ± 1.82 h.

What about the Tmax [1, 29] of the same compound?
The Tmax was 0.28 ± 0.14 ^b h.

What about the “AUC0-∞” value [1, 30] of the same compound?
The value was 40.99 ± 46.75 ng·h/mL.

And the AUC(0-t) [1, 30]?
The AUC(0-t) was 29.64 ± 22.98 ng·h/mL.

What about the CLz/F [1, 30] of the same compound?
Its CLz/F is 1061 ± 726.2 mL/min/kg.

What about the Cmax [1, 30] of the same compound?
The Cmax was 8.95 ± 6.01 ng/mL.

What about the MRT0-t [1, 30] of the same compound?
The MRT0-t was 3.90 ± 3.23 h.

And the “MRT0-∞” value [1, 30]?
Its value is 8.76 ± 14.72 h.

And the T1/2 [1, 30]?
The T1/2 was 10.67 ± 9.80 h.

What about the Tmax [1, 30] of the same compound?
The Tmax was 1.22 ± 0.66 ^f h.

What about the “Cmax in FT compared with FS” value ([1]; normal group, p < 0.01, 0.05) of the same compound?
The value was “significantly lower”.

And the “Stability, Accuracy (RE, %)” value [3, 15]?
Its value is 7.30%.

And the “Stability, Accuracy (RE, %)” value [3, 16]?
Its value is −9.02%.

What about the “Stability, Accuracy (RE, %)” value [3, 17] of the same compound?
Its value is −3.01%.

What about the “Stability, Accuracy (RE, %)” value [3, 18] of the same compound?
The value was −13.32%.

What about the “Stability, Accuracy (RE, %)” value [3, 19] of the same compound?
Its value is 4.15%.

And the “Stability, Accuracy (RE, %)” value [3, 20]?
The value was 1.94%.

And the “Stability, Accuracy (RE, %)” value [3, 21]?
Its value is −1.60%.

What about the “Stability, Accuracy (RE, %)” value [3, 22] of the same compound?
Its value is −1.94%.

And the “Stability, Accuracy (RE, %)” value [3, 23]?
The value was 4.74%.

And the “Stability, Accuracy (RE, %)” value [3, 24]?
The value was −3.54%.

What about the “Stability, Accuracy (RE, %)” value [3, 25] of the same compound?
Its value is −5.18%.

What about the “Stability, Accuracy (RE, %)” value [3, 26] of the same compound?
The value was 7.92%.
